This note sets out measurements from PubChem BioAssay (NCI).

Some test systems named below: TK-10 renal; NCI-H23 lung; HCT-15 colon; RXF 393 renal; HT29 colon; K-562 leukemia; 786-0 renal; CAKI-1 renal; SN12C renal; SW-620 colon.
What all share (assay): NCI anticancer screen, dose series, 48 h

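Assay format: 96-well plates, 48-hour exposure. TGI marks complete inhibition of growth.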

Take `CSc1ncc2c(n1)sc1c(=O)n(-c3ccccc3)cnc12`: the TGI in the assay on TK-10 renal, in the assay with NCI-H23 lung, in the assay with HCT-15 colon, with RXF 393 renal, in the assay with HT29 colon and in the assay on K-562 leukemia was > 100 µM in each case. In addition, the TGI in the assay with 786-0 renal, with CAKI-1 renal, with SN12C renal and in the assay with SW-620 colon was > 100 µM in each case.
Turning to `CC(OC(=O)C(CC(=O)OC(C)(C)C)NC(=O)OC(C)(C)C)C(=O)OCc1ccccc1` (stereo not given), the TGI in the assay on TK-10 renal, in the assay on NCI-H23 lung, with HCT-15 colon, with RXF 393 renal, in the assay with HT29 colon and with K-562 leukemia was > 100 µM each time. In addition, the TGI in the assay on 786-0 renal, with CAKI-1 renal, in the assay on SN12C renal and in the assay with SW-620 colon was > 100 µM in each case.
Turning to `CC(=O)C1=C(C)N(c2ccc(C)cc2)C2(O)C3=C(C(=O)c4ccccc4C3=O)C(O)=CC12Cl` (stereo not given), the TGI is 97 µM in the assay on TK-10 renal; 34 µM with NCI-H23 lung; > 100 µM in the assay on HCT-15 colon; 50.8 µM in the assay on RXF 393 renal; 60.1 µM with HT29 colon; > 100 µM in the assay with K-562 leukemia. The TGI in the assay on 786-0 renal was > 100 µM; with CAKI-1 renal it was 87.1 µM; in the assay on SN12C renal, 57.9 µM; with SW-620 colon, > 100 µM.
For the compound `COc1cc2c(cc1OCCCCOc1cc3c(cc1OC)C(=O)N1CCC[C@H]1C(=O)N3)N=C[C@@H]1CCCN1C2=O`, the TGI in the assay on TK-10 renal worked out at 27.4 µM; in the assay with NCI-H23 lung it was 25.4 µM; with HCT-15 colon it was 24.6 µM; with RXF 393 renal it was 14.8 µM; in the assay on HT29 colon it was 43.2 µM; in the assay with K-562 leukemia it was 6.88 µM. Further, the TGI in the assay on 786-0 renal was 39.2 µM; in the assay on CAKI-1 renal, 25.5 µM; with SN12C renal, 21.4 µM; in the assay with SW-620 colon, 14.6 µM.
Turning to `COc1ccc2nc3ccc(OC)cc3c(SCc3ccccc3)c2c1`, the TGI with TK-10 renal, in the assay on NCI-H23 lung, with HCT-15 colon, in the assay on RXF 393 renal, in the assay with HT29 colon and in the assay on K-562 leukemia was > 100 µM in each case. Also, the TGI with 786-0 renal, in the assay with CAKI-1 renal, in the assay with SN12C renal and in the assay on SW-620 colon was > 100 µM throughout.
As to `COC(=O)C1=C(C)C=C(N2CCOCC2)C(C(=O)OC)C1c1ccccc1` (stereo not given), the TGI with TK-10 renal, with NCI-H23 lung, in the assay with HCT-15 colon, in the assay with RXF 393 renal, in the assay on HT29 colon and in the assay on K-562 leukemia was > 10 µM throughout. Moreover, the TGI in the assay on 786-0 renal, in the assay on CAKI-1 renal, in the assay with SN12C renal and in the assay on SW-620 colon was > 10 µM throughout.
Take `CCOc1cc2oc(C)cc(=O)c2c(OC)c1C=Nc1ccc(Cn2c(C)nc3ccccc32)cc1`: the TGI with TK-10 renal, in the assay on NCI-H23 lung, in the assay on HCT-15 colon, in the assay with RXF 393 renal, in the assay on HT29 colon and with K-562 leukemia was > 100 µM throughout. Further, the TGI in the assay on 786-0 renal, in the assay on CAKI-1 renal, in the assay with SN12C renal and with SW-620 colon was > 100 µM throughout.
Turning to `CC(=O)OC12c3ccccc3-c3ccccc3C1C1C(=O)OC(=O)C12` (stereo not given), the TGI with TK-10 renal, with NCI-H23 lung, in the assay with HCT-15 colon, with RXF 393 renal, in the assay on HT29 colon and in the assay with K-562 leukemia was > 10 µM in each case. Also, the TGI in the assay on 786-0 renal, in the assay with CAKI-1 renal, with SN12C renal and in the assay on SW-620 colon was > 10 µM in each case.
Consider `CCOC(=O)C(NC(=O)c1ccccc1)(Nc1ccc(Cl)cc1C(F)(F)F)C(F)(F)F` (stereo not given), for which the TGI is > 100 µM in the assay on TK-10 renal; > 78 µM in the assay on NCI-H23 lung; > 50.9 µM with HCT-15 colon; 24.7 µM in the assay on RXF 393 renal; 6.53 µM in the assay on HT29 colon; > 26.7 µM with K-562 leukemia. Besides, the TGI was > 100 µM with 786-0 renal, > 55.7 µM with CAKI-1 renal, > 44.2 µM with SN12C renal and 17.2 µM in the assay with SW-620 colon.
As for `Cc1ccc(S(=O)c2sccc2C=O)cc1` (stereo not given), the TGI with TK-10 renal is > 100 µM; in the assay with NCI-H23 lung, > 100 µM; in the assay on HCT-15 colon it was 85.8 µM; in the assay on RXF 393 renal, > 100 µM; in the assay on HT29 colon, 45 µM; in the assay with K-562 leukemia, > 100 µM. Moreover, the TGI is > 100 µM in the assay on 786-0 renal, > 100 µM in the assay with CAKI-1 renal, 63.5 µM with SN12C renal and 55.9 µM with SW-620 colon.
Consider `CCOC(=O)c1[nH]cc(C)c1-c1ccc2c(-c3ccccc3)nc3ccccc3n12`, for which the TGI in the assay on TK-10 renal was found to be 15.2 µM; in the assay with NCI-H23 lung it was 23.3 µM; with HCT-15 colon it was 13.7 µM; in the assay with RXF 393 renal, 7.22 µM; in the assay on HT29 colon, 11.9 µM; in the assay on K-562 leukemia it was 9.13 µM. Also, the TGI in the assay with 786-0 renal is 12.8 µM; with CAKI-1 renal, 17.8 µM; in the assay with SN12C renal, 15.2 µM; in the assay with SW-620 colon, 16.5 µM.
Consider `CCN(CC)CCNc1ccc2nnn3c4ccc(O)cc4c(=O)c1c23`, for which the TGI amounted to 18.9 µM with TK-10 renal; 19.7 µM with NCI-H23 lung; 17.6 µM in the assay with HCT-15 colon; 5.96 µM in the assay with RXF 393 renal; 15 µM in the assay with HT29 colon; 30.6 µM with K-562 leukemia. Also, the TGI in the assay with 786-0 renal is 15.6 µM; with CAKI-1 renal, 13.4 µM; in the assay on SN12C renal, 17.8 µM; in the assay on SW-620 colon it was 15.6 µM.
As for `Cc1nnc(N)nc1/C=C/c1c(O)ccc2ccccc12`, the TGI in the assay on TK-10 renal is > 100 µM; in the assay with NCI-H23 lung, > 100 µM; in the assay with HCT-15 colon, 44 µM; in the assay on RXF 393 renal, 36.2 µM; in the assay on HT29 colon, 87.7 µM; in the assay on K-562 leukemia, > 100 µM. In addition, the TGI in the assay on 786-0 renal, in the assay on CAKI-1 renal, in the assay with SN12C renal and in the assay on SW-620 colon was > 100 µM in each case.
With `CCOC(=O)C(C(=S)SC)c1nn2c(=O)cc(C)nc2s1` (stereo not given), the TGI came out at 61.9 µM in the assay with TK-10 renal; 39 µM with NCI-H23 lung; 35.3 µM in the assay on HCT-15 colon; 39.8 µM in the assay on RXF 393 renal; 36.9 µM in the assay with HT29 colon; 34.9 µM with K-562 leukemia. The TGI with 786-0 renal turned out to be 36.1 µM; in the assay on CAKI-1 renal, 37.3 µM; in the assay with SN12C renal, 34.2 µM; with SW-620 colon, 37.2 µM.
